Results as given in paper PMC7843452, “Novel Hybrids of Podophyllotoxin and Coumarin Inhibit the Growth and Migration of Human Oral Squamous Carcinoma Cells” (Frontiers in Chemistry, 2021).
Where two headings read alike, the source gives them in different places.

Legend:
[1] = test system: human oral squamous carcinoma A253 cells; test: CCK-8 antiproliferative assay, A253; type: cell-based; settings: read-out: IC50 (μM) A253
Method: (§1) The in vitro antiproliferative activities of target compounds were investigated against human oral squamous carcinoma HSC-2, SCC-9, and A253 cells and human renal tubular epithelial HK-2 cells by Cell Counting Kit-8 (CCK-8) assay. The HSC-2, SCC-9, and A253 cell lines were purchased from Cobioer Biosciences (Nanjing, China), and HK-2 cell line was from KeyGen Biotech (Nanjing, China). The cells were placed into 96-well plates. After 24 h, cells were treated with 0.1% DMSO or different doses of test compounds for 72 h at 37°C in a CO2 incubator. Subsequently, 100 μl of CCK-8 test solution was added and incubated for 3 h at 37°C. The absorbance value of each well was measured at 450 nm.

[2] = test system: human oral squamous carcinoma SCC-9 cells; test: CCK-8 antiproliferative assay, SCC-9; type: cell-based; settings: read-out: IC50 (μM) SCC-9
Method: as §1

[3] = test system: human renal tubular epithelial HK-2 cells; test: CCK-8 assay on normal cells, HK-2; type: cell-based; settings: read-out: IC50 (μM) HK-2
Method: as §1

[4] = test system: human oral squamous carcinoma HSC-2 cells; test: CCK-8 antiproliferative assay, HSC-2; type: cell-based; settings: read-out: IC50 (μM) HSC-2
Method: as §1

MMP-2 = test: Western blot, MMP-2; type: cell-based, human; settings: HSC-2, 0.1, 0.25 and 0.5 μM, 48 h
Method: (§2) After being cultured, HSC-2 cells were treated with 0.1% DMSO or different concentrations of compounds at 37°C for 48 h. Then, cells were collected, washed twice with PBS, and lysed with cold lysis buffer, followed by centrifugation. Then, the total proteins were collected, and protein concentration was quantified using Bradford assay. Equal amounts of proteins were electrophoresed by 10% sodium dodecyl sulfate–polyacrylamide gel electrophoresis (SDS-PAGE) and transferred onto nitrocellulose (NC) membrane. Membranes were blocked with 5% non-fat milk for 2 h, then washed, and incubated with primary antibodies overnight at 4°C. After being washed, the membranes were treated with secondary antibodies at room temperature for 2 h and then visualized using an ECL Western blotting kit.

E-cadherin = test: Western blot, E-cadherin; type: cell-based, human; settings: HSC-2, 0.1, 0.25 and 0.5 μM, 48 h
Method: as §2

HSC-2 cells [5] = test: Mitochondrial membrane potential assay (JC-1); type: cell-based, human; settings: HSC-2, 0.1, 0.25 and 0.5 μM, 48 h, JC-1, dose-dependent
Method: HSC-2 cells were seeded on six-well plates and grown overnight at 37°C in a 5% CO2 incubator. Then, cells were incubated with 0.1% DMSO or different concentrations of compounds at 37°C for 48 h. Subsequently, cells were trypsinized, washed with PBS, and resuspended in incubation buffer containing JC-1 at 37°C for 20 min in a 5% CO2 incubator. The dyeing cells were rinsed, suspended in incubation PBS, and then analyzed d by flow cytometry.

[6] = test system: microtubule network in HSC-2 cells; test: Immunofluorescence assay of microtubule network; type: cell-based, human; settings: HSC-2, 0.1, 0.25 and 0.5 μM, 48 h, dose-dependent
Method: HSC-2 cells were seeded on 24-well plates, grown overnight at 37°C in a 5% CO2 incubator, and then incubated with 0.1% DMSO or different concentrations of compounds at 37°C for 48 h. Cells were washed with PBS, fixed with 4% paraformaldehyde, and then further permeabilized with 0.5% Triton X-100 for 10 min. Subsequently, cells were blocked for 20 min by 50–100 μl of goat serum albumin at room temperature and then treated with α-tubulin primary antibody at 4°C for 2 h. Then, cells were treated with the Alexa Fluor 488-labeled goat anti-rabbit fluorescence secondary antibody at 37°C for 1 h in the dark, and the cell nuclei were labeled by DAPI at room temperature for 5 min. Finally, cells were visualized under a confocal microscope.

HSC-2 cells [7] = test: AO/EB double staining assay; type: cell-based, human; settings: HSC-2, 0.1, 0.25 and 0.5 μM, 48 h
Method: HSC-2 cells were seeded on six-well plates and grown overnight at 37°C in a 5% CO2 incubator. Then, cells were incubated with 0.1% DMSO or different concentrations of compounds at 37°C for 48 h. Subsequently, cells were trypsinized, collected, washed with PBS, and stained with 100 μl of AO/EB dye at room temperature for 15 min in the dark. The dyeing cells were rinsed, suspended in incubation PBS, and then observed under a fluorescence microscope.

CDK2 = test: Western blot, CDK2; type: cell-based, human; settings: HSC-2, 0.1, 0.25 and 0.5 μM, 48 h
Method: as §2

HSC-2 cells [8] = test: Wound healing migration assay; type: cell-based, human; settings: HSC-2, 0.1, 0.25 and 0.5 μM, 48 h, dose-dependent
Method: HSC-2 cells were seeded on six-well plates and grown to 80% at 37°C in a 5% CO2 incubator. Then, cells were scratched using the tip of the pipette, then washed with PBS to remove the non-adherent cells, and incubated with 0.1% DMSO or different concentrations of compounds at 37°C for 48 h. The images of cell migration were photographed with an inverted fluorescent microscope at 0 and 48 h.

p-AMPK = test: Western blot, p-AMPK; type: cell-based, human; settings: HSC-2, 0.1, 0.25 and 0.5 μM, 48 h, dose-dependent
Method: as §2

LC3 = test: Western blot, LC3; type: cell-based, human; settings: HSC-2, 0.1, 0.25 and 0.5 μM, 48 h
Method: as §2

HSC-2 cells [9] = test: Cell cycle analysis by flow cytometry (PI); type: cell-based, human; settings: 48 h
Method: HSC-2 cells were incubated in six-well plates and then treated with 0.1% DMSO or different concentrations of test compounds for 48 h. Subsequently, cells were fixed with 70% ethanol at 4°C overnight. After that, cells were washed with phosphate-buffered saline (PBS) and stained with 100 μl of RNase A at 37°C for 30 min and then 400 μl of propidium iodide (PI) at 4°C for 30 min. The cell cycle was measured by flow cytometry.

cleaved caspase3 = test: Western blot, cleaved caspase3; type: cell-based, human; settings: HSC-2, 0.1, 0.25 and 0.5 μM, 48 h, concentration-dependent
Method: as §2

Beclin1 = test: Western blot, Beclin1; type: cell-based, human; settings: HSC-2, 0.1, 0.25 and 0.5 μM, 48 h
Method: as §2

cyclin A2 = test: Western blot, cyclin A2; type: cell-based, human; settings: HSC-2, 0.1, 0.25 and 0.5 μM, 48 h
Method: as §2

cleaved PARP = test: Western blot, cleaved PARP; type: cell-based, human; settings: HSC-2, 0.1, 0.25 and 0.5 μM, 48 h, concentration-dependent
Method: as §2

HSC-2 cells [10] = test: Cell apoptosis analysis by flow cytometry (Annexin V/7-AAD); type: cell-based, human; settings: HSC-2, 0.1, 0.25 and 0.5 μM, 48 h, dose-dependent
Method: HSC-2 cells were seeded into six-well plates, grown overnight at 37°C in a 5% CO2 incubator, and then treated with 0.1% DMSO or different concentrations of test compounds for 48 h. Cells were washed twice with ice-cold PBS and then suspended with 500 μl of binding buffer. Subsequently, 5 μl of Annexin V-APC and 5 μl of 7-AAD were added, and the cells were incubated at room temperature for 15 min in the dark. The samples were analyzed by flow cytometry.

p-AKT = test: Western blot, p-AKT; type: cell-based, human; settings: HSC-2, 0.1, 0.25 and 0.5 μM, 48 h
Method: as §2

p-mTOR = test: Western blot, p-mTOR; type: cell-based, human; settings: HSC-2, 0.1, 0.25 and 0.5 μM, 48 h
Method: as §2

[11] = normal cells, CCK-8, 72 h, mean ± SD

O=c1[nH]cc(F)c(=O)[nH]1 [5-FU]
IC50 ([1]; CCK-8, 72 h, mean ± SD): 5.52 ± 0.199 µM | IC50 ([2]; CCK-8, 72 h, mean ± SD): 5.35 ± 0.784 µM | IC50 [3, 11]: 8.77 ± 1.04 µM | IC50 ([4]; CCK-8, 72 h, mean ± SD): 7.12 ± 0.87 µM

COc1cc([C@@H]2c3cc4c(cc3[C@H](OC(=O)COc3ccc5c(C)cc(=O)oc5c3)[C@H]3COC(=O)[C@H]23)OCO4)cc(OC)c1OC [12a]
IC50 ([1]; Homo sapiens, A253, 72 h): 0.349 ± 0.063 µM | IC50 ([2]; Homo sapiens, SCC-9, 72 h): 0.279 ± 0.041 µM | IC50 ([3]; Homo sapiens, HK-2, 72 h): 0.814 ± 0.173 µM | IC50 ([4]; Homo sapiens, HSC-2, 72 h): 0.281 ± 0.024 µM

COc1cc([C@@H]2c3cc4c(cc3[C@H](OC(=O)COc3ccc5ccc(=O)oc5c3)[C@H]3COC(=O)[C@H]23)OCO4)cc(OC)c1OC [12b]
Expression of MMP-2 (MMP-2): reduced | IC50 ([1]; Homo sapiens, A253, 72 h): 0.25 ± 0.019 µM | Expression of E-cadherin (E-cadherin): obviously enhanced | Mitochondrial membrane potential (MMP) (HSC-2 cells [5]): significantly decreased | Effect on microtubule network organization [6]: disruption of microtubule network organizations | Morphological change, AO/EB staining (HSC-2 cells [7]): chromatin condensation and shrinkage | Relative level of CDK2 (CDK2): suppressed in a concentration-dependent manner | Cell migration (HSC-2 cells [8]): inhibited HSC-2 cell migration | p-AMPK expression (p-AMPK): upregulated | IC50 ([2]; Homo sapiens, SCC-9, 72 h): 0.231 ± 0.05 µM | Aggregation of LC3 (LC3): increasing | Level of cleavage of LC3 (LC3-II) (LC3): upregulated | Effect on cell cycle (HSC-2 cells [9]; HSC-2, 0.1 μM): significant S accumulation | Effect on cell cycle (HSC-2 cells [9]; HSC-2, 0.25 and 0.5 μM): cell cycle arrest at both S and G2 phases | Relative level of cleaved caspase3 (cleaved caspase3): upregulated | Aggregation of Beclin1 (Beclin1): increasing | IC50 ([3]; Homo sapiens, HK-2, 72 h): 0.626 ± 0.043 µM | Relative level of cyclin A2 (cyclin A2): suppressed in a concentration-dependent manner | IC50 ([4]; Homo sapiens, HSC-2, 72 h): 0.226 ± 0.021 µM | Relative level of cleaved PARP (cleaved PARP): upregulated | Induction of apoptosis (HSC-2 cells [10]): obviously induced apoptosis | Phosphorylation of AKT (p-AKT): downregulated | mTOR phosphorylation (p-mTOR): inhibition

N.N.[Cl][Pt][Cl] [Cisplatin, cisplatin]
IC50 ([1]; CCK-8, 72 h, mean ± SD): 1.62 ± 0.157 µM | IC50 ([2]; CCK-8, 72 h, mean ± SD): 2.35 ± 0.384 µM | IC50 [3, 11]: 5.36 ± 0.33 µM | IC50 ([4]; CCK-8, 72 h, mean ± SD): 2.03 ± 0.308 µM

COc1cc([C@@H]2c3cc4c(cc3[C@@H](O[C@@H]3O[C@@H]5CO[C@@H](C)O[C@H]5[C@H](O)[C@H]3O)[C@H]3COC(=O)[C@H]23)OCO4)cc(OC)c1O [Etoposide, etoposide]
IC50 ([1]; Homo sapiens, A253, CCK-8, 72 h, mean ± SD): 0.95 ± 0.387 µM | IC50 ([2]; Homo sapiens, SCC-9, CCK-8, 72 h, mean ± SD): 1.15 ± 0.308 µM | IC50 ([3]; Homo sapiens, HK-2, normal cells, CCK-8, 72 h, mean ± SD): 3.04 ± 1.37 µM | IC50 ([4]; Homo sapiens, HSC-2, CCK-8, 72 h, mean ± SD): 1.25 ± 0.467 µM
